{"source": "paper PMC6829864", "about": "“Determination of Ligand Profiles for Pseudomonas aeruginosa Solute Binding Proteins” (International Journal of Molecular Sciences, 2019)", "key": {"PA2338 [1]": {"biological_target": "T1, PA2338 (Pseudomonas aeruginosa, UniProt Q9I1E0)", "T1 sequence (Q9I1E0 23-436)": "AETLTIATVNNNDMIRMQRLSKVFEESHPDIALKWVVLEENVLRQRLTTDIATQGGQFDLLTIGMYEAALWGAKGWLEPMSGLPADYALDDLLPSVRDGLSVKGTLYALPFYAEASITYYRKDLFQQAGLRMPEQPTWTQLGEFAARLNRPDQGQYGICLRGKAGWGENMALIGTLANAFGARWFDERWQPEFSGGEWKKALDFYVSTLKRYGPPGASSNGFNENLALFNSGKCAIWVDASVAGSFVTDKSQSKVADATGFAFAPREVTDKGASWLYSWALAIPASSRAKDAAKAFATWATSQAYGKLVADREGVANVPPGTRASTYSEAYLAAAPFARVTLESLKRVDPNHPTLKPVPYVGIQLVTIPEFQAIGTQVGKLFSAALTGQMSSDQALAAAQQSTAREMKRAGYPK", "assay": "Isothermal titration calorimetry, PA2338", "type": "binding, Pseudomonas aeruginosa PAO1", "conditions": "25 °C"}, "PA0222 [2]": {"biological_target": "T2, PA0222 (Pseudomonas aeruginosa, UniProt Q9I6R6)", "T2 sequence (Q9I6R6 29-352)": "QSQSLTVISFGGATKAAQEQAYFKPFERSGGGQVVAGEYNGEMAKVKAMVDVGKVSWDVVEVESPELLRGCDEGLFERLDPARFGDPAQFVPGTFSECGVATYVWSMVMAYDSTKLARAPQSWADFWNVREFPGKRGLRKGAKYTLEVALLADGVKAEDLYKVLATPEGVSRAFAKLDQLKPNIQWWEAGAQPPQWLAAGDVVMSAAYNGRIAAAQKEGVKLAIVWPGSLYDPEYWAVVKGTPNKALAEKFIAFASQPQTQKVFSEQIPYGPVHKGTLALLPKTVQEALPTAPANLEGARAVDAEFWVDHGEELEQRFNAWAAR", "type": "binding", "conditions": "Tm change vs ligand-free protein"}, "PA0222 [3]": {"biological_target": "T2, PA0222", "assay": "Isothermal titration calorimetry, PA0222", "type": "binding, Pseudomonas aeruginosa PAO1", "conditions": "25 °C"}, "[4]": {"system": "Pseudomonas aeruginosa PAO1", "type": "cell-based", "conditions": "chemoeffector 1 mM, except molybdate 0.1 mM"}, "PA3889 (opuCC) [5]": {"biological_target": "T3, PA3889 (opuCC) (Pseudomonas aeruginosa, UniProt Q9HXC4)", "T3 sequence (Q9HXC4 24-311)": "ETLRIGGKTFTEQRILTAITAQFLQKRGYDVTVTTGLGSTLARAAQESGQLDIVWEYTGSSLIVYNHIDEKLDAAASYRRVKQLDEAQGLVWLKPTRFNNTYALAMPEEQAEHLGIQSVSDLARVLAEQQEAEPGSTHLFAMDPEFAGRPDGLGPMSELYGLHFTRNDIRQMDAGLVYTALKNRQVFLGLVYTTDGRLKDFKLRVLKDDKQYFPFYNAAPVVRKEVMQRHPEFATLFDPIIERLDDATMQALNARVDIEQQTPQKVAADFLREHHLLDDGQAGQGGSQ", "assay": "DSF thermal shift ligand screening, PA3889", "type": "binding, Pseudomonas aeruginosa PAO1", "conditions": "Tm change vs ligand-free protein"}, "PA3889 (opuCC) [6]": {"biological_target": "T3, PA3889 (opuCC)", "assay": "Isothermal titration calorimetry, PA3889", "type": "binding, Pseudomonas aeruginosa PAO1", "conditions": "25 °C"}, "PA2592 [7]": {"biological_target": "T4, PA2592 (Pseudomonas aeruginosa, UniProt Q9I0P5)", "T4 sequence (Q9I0P5 20-367)": "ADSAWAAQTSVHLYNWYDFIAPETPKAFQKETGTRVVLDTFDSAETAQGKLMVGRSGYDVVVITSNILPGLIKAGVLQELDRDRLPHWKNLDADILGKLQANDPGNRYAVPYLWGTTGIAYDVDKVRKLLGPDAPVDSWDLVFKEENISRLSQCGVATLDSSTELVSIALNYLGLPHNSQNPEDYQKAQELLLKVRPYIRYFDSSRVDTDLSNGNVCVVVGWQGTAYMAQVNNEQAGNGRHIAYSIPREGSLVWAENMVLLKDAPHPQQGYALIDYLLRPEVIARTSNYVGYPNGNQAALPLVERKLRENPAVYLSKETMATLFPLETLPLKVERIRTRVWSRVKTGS", "assay": "DSF thermal shift ligand screening, PA2592", "type": "binding, Pseudomonas aeruginosa PAO1", "conditions": "arrays PM2A, PM3B, PM5"}, "PA3610 (potD) [8]": {"biological_target": "T5, PA3610 (potD) (Pseudomonas aeruginosa, UniProt Q9HY16)", "T5 sequence (Q9HY16 21-354)": "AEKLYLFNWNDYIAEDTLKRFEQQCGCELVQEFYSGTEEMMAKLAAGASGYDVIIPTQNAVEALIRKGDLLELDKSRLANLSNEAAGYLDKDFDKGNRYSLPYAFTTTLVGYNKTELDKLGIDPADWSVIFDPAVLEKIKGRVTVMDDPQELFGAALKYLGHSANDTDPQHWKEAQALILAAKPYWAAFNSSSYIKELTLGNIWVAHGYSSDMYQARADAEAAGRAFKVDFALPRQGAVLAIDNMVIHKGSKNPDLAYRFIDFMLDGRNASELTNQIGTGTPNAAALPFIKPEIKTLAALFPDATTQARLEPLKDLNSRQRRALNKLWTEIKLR", "assay": "Isothermal titration calorimetry, PA3610", "type": "binding, Pseudomonas aeruginosa PAO1", "conditions": "25 °C"}, "PA2592 [9]": {"biological_target": "T4, PA2592", "assay": "biochemical", "type": "binding"}, "PA1342 (aatJ) [10]": {"biological_target": "T6, PA1342 (aatJ) (Pseudomonas aeruginosa, UniProt Q9I402)", "T6 sequence (Q9I402 24-302)": "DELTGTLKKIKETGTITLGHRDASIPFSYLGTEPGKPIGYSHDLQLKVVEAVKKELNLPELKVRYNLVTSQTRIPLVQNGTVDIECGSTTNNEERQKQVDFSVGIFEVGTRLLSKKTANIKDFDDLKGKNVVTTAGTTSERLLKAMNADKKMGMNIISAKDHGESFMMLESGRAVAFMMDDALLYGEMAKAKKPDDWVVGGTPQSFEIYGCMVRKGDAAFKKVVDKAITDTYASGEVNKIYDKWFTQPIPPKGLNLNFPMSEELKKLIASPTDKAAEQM", "type": "binding", "conditions": "25 °C"}, "PA1342 (aatJ) [11]": {"biological_target": "T6, PA1342 (aatJ)", "assay": "DSF thermal shift ligand screening, PA1342", "type": "binding, Pseudomonas aeruginosa PAO1", "conditions": "Tm change vs ligand-free protein"}, "PA1074 (braC) [12]": {"biological_target": "T7, PA1074 (braC) (Pseudomonas aeruginosa, UniProt P21175)", "T7 sequence (P21175 27-373)": "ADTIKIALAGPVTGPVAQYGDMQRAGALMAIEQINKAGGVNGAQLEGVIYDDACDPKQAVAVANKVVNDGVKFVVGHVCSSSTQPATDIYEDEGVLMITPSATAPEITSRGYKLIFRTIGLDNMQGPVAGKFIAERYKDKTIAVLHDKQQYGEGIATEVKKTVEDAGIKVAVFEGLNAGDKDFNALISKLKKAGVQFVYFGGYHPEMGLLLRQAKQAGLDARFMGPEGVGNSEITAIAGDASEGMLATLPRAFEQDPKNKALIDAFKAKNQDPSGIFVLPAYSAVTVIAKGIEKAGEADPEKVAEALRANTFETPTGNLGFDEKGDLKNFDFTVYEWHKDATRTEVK", "type": "binding, Pseudomonas aeruginosa PAO1", "conditions": "Tm change vs ligand-free protein"}, "PA1074 (braC) [13]": {"biological_target": "T7, PA1074 (braC)", "assay": "biochemical", "type": "binding, Pseudomonas aeruginosa PAO1"}, "PA2338 [14]": {"biological_target": "T1, PA2338", "assay": "DSF thermal shift ligand screening, PA2338", "type": "binding, Pseudomonas aeruginosa PAO1", "conditions": "Tm change vs ligand-free protein"}, "PA3610 (potD) [15]": {"biological_target": "T5, PA3610 (potD)", "assay": "DSF thermal shift ligand screening, PA3610", "type": "binding, Pseudomonas aeruginosa PAO1", "conditions": "Tm change vs ligand-free protein"}, "PA0283 (sbp) [16]": {"system": "PA0283 (sbp)", "assay": "DSF thermal shift ligand screening, PA0283", "type": "binding, Pseudomonas aeruginosa PAO1", "conditions": "Tm change vs ligand-free protein"}, "PA0283 (sbp) [17]": {"biological_target": "PA0283 (sbp)", "assay": "Isothermal titration calorimetry, PA0283", "type": "binding, Pseudomonas aeruginosa PAO1", "conditions": "25 °C"}, "PA1493 (cysP) [18]": {"biological_target": "T8, PA1493 (cysP) (Pseudomonas aeruginosa, UniProt Q9I3L9)", "T8 sequence (Q9I3L9 23-332)": "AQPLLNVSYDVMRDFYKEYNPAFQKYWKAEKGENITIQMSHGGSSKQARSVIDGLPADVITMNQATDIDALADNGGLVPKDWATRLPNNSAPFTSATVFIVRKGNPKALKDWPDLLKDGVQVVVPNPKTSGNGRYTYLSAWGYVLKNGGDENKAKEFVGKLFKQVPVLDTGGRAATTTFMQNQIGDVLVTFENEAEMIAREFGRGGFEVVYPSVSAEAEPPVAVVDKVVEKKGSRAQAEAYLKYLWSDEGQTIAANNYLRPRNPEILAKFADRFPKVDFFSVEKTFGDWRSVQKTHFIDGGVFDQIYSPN", "conditions": "Tm change vs ligand-free protein"}, "PA1493 (cysP) [19]": {"biological_target": "T8, PA1493 (cysP)", "assay": "biochemical", "type": "binding, Pseudomonas aeruginosa PAO1"}, "PA4687 (hitA) [20]": {"system": "PA4687 (hitA)", "conditions": "Tm change vs ligand-free protein"}, "PA4687 (hitA) [21]": {"system": "PA4687 (hitA)", "type": "binding, Pseudomonas aeruginosa PAO1"}}, "note": "“Also recorded” adds a separate entry of the source."}
{"compound": "OC[C@H]1O[C@H](O[C@H]2[C@H](O)[C@@H](O)C(O)O[C@@H]2CO)[C@H](O)[C@@H](O)[C@@H]1O", "note": "(mixture of isomers) [Maltose]", "values": [{"measurement": "No Binding Observed by ITC", "setting": "PA2338 [1]", "value": "absence of maltose binding"}]}
{"compound": "CC(N)CCC(=O)O", "note": "(stereo not drawn) [4-aminovalerate, 4-aminovaleric acid]", "values": [{"measurement": "Tm DSF (Tm increase)", "setting": "PA0222 [2]", "value": 2.2, "unit": "°C"}, {"measurement": "KD by ITC", "setting": "PA0222 [3]", "value": "No binding"}, {"measurement": "No Binding Observed by ITC", "setting": "PA0222 [3]", "value": "failed to bind"}]}
{"compound": "NCCCC(=O)O", "note": "[GABA, γ-amino-butyric acid]", "values": [{"measurement": "Tm DSF (Tm increase)", "setting": "PA0222 [2]", "value": 9.6, "unit": "°C"}]}
{"compound": "C[N+](C)(C)CC(=O)O", "note": "[Glycine-betaine]", "values": [{"measurement": "Chemotaxis response in words", "setting": "[4]", "value": "very strong taxis"}, {"measurement": "Tm DSF (Tm increase)", "setting": "PA3889 (opuCC) [5]", "value": 3.2, "unit": "°C"}, {"measurement": "Kd", "setting": "PA3889 (opuCC) [6]; read-out: KD by ITC", "value": "3000 ± 400", "unit": "nM"}]}
{"compound": "NCCc1c[nH]cn1", "note": "[Histamine]", "values": [{"measurement": "Tm DSF (Tm increase)", "setting": "PA2592 [7]", "value": 3.9, "unit": "°C"}, {"measurement": "No Binding Observed by ITC", "setting": "PA3610 (potD) [8]", "value": "did not reveal any binding"}, {"measurement": "KD by ITC", "setting": "PA2592 [9]; PA2592, 25 °C", "value": "No binding"}, {"measurement": "No Binding Observed by ITC", "setting": "PA2592 [9]; PA2592, 25 °C", "value": "no binding"}, {"measurement": "No Binding Observed by ITC", "setting": "PA0222 [3]", "value": "failed to bind; also recorded: no measurable affinity"}]}
{"compound": "NC(=O)C[C@H](N)C(=O)O", "note": "[L-Asn]", "values": [{"measurement": "No Binding Observed by ITC", "setting": "PA1342 (aatJ) [10]", "value": "No binding was observed"}]}
{"compound": "N[C@@H](CC(=O)O)C(=O)O", "note": "[L-Asp]", "values": [{"measurement": "Tm DSF (Tm increase)", "setting": "PA1342 (aatJ) [11]", "value": 10.9, "unit": "°C"}]}
{"compound": "NC(=O)CC[C@H](N)C(=O)O", "note": "[L-Gln]", "values": [{"measurement": "No Binding Observed by ITC", "setting": "PA1342 (aatJ) [10]", "value": "No binding was observed"}]}
{"compound": "CC(C)C[C@H](N)C(=O)O", "note": "[L-Leu]", "values": [{"measurement": "Tm DSF (Tm increase)", "setting": "PA1074 (braC) [12]", "value": "4.0 12.1 10.1 10.2 3.0 3.5 5.0 3.8 4.2 °C"}, {"measurement": "Kd", "setting": "PA1074 (braC) [13]", "value": 290, "unit": "nM"}]}
{"compound": "C[N+](C)(C)C[C@H](O)CC(=O)[O-]", "note": "[L-carnitine]", "values": [{"measurement": "Chemotaxis", "setting": "[4]; capillary assay, 30 min", "value": "Yes Yes (Positive chemotaxis was considered when the number of bacterial cells per capillary was superior to 5000.)"}, {"measurement": "Chemotaxis response in words", "setting": "[4]", "value": "very strong taxis"}, {"measurement": "Tm DSF (Tm increase)", "setting": "PA3889 (opuCC) [5]", "value": 2.8, "unit": "°C"}, {"measurement": "KD by ITC", "setting": "PA3889 (opuCC) [6]", "value": "No binding"}, {"measurement": "No Binding Observed by ITC", "setting": "PA3889 (opuCC) [6]", "value": "no binding heats were observed"}]}
{"compound": "OC[C@@H](O)[C@@H](O)[C@H](O)[C@H](O)CO", "note": "[Mannitol]", "values": [{"measurement": "Kd", "setting": "PA2338 [1]; read-out: KD by ITC", "value": "830 ± 200", "unit": "nM"}, {"measurement": "Tm DSF (Tm increase)", "setting": "PA2338 [14]", "value": 4.1, "unit": "°C"}]}
{"compound": "NCCCCN", "note": "[Putrescine]", "values": [{"measurement": "Tm DSF (Tm increase)", "setting": "PA2592 [7]", "value": 4.4, "unit": "°C"}, {"measurement": "Kd", "setting": "PA3610 (potD) [8]; read-out: KD by ITC (converted)", "value": "4800 ± 400", "unit": "nM"}, {"measurement": "Tm DSF (Tm increase)", "setting": "PA3610 (potD) [15]", "value": 13, "unit": "n. d.^2 °C"}, {"measurement": "Tm DSF (Tm increase)", "setting": "PA3610 (potD) [15]; listed as putrescine", "value": 13, "unit": "°C"}, {"measurement": "Kd", "setting": "PA2592 [9]", "value": "31000 ± 4000", "unit": "nM"}, {"measurement": "No Binding Observed by ITC", "setting": "PA0222 [3]", "value": "no measurable affinity"}]}
{"compound": "NCCCCNCCCN", "note": "[Spermidine]", "values": [{"measurement": "No Binding Observed by ITC", "setting": "PA3610 (potD) [8]", "value": "did not reveal any binding"}, {"measurement": "Tm DSF (Tm increase)", "setting": "PA3610 (potD) [15]", "value": "did not stabilize the protein"}, {"measurement": "No Binding Observed by ITC", "setting": "PA2592 [9]; PA2592, 25 °C", "value": "no binding"}, {"measurement": "No Binding Observed by ITC", "setting": "PA0222 [3]", "value": "failed to bind; also recorded: no measurable affinity"}]}
{"compound": "O=S(O)(O)=S", "note": "[Thiosulphate]", "values": [{"measurement": "Tm DSF (Tm increase)", "setting": "PA0283 (sbp) [16]", "value": 2.1, "unit": "°C"}, {"measurement": "Chemotaxis response in words", "setting": "[4]", "value": "moderate taxis"}, {"measurement": "KD by ITC", "setting": "PA0283 (sbp) [17]", "value": "No binding No binding"}, {"measurement": "Tm DSF (Tm increase)", "setting": "PA1493 (cysP) [18]", "value": 7.4, "unit": "°C"}, {"measurement": "Kd", "setting": "PA1493 (cysP) [19]", "value": "290 ± 200", "unit": "nM"}]}
{"compound": "Iron(III) citrate", "values": [{"measurement": "Tm DSF (Tm increase)", "setting": "PA4687 (hitA) [20]", "value": "no significant increases in Tm"}, {"measurement": "No Binding Observed by ITC", "setting": "PA4687 (hitA) [21]", "value": "did not show any binding"}]}
